From patent US8697081B2, “Method of modulating neovascularization” (The Regents of the University of Michigan, priority 2008, dated 2014)

Assays:
[1] = system: Human umbilical vein endothelial cells; assay: Cytoskeletal organization (F-actin, β-tubulin, vimentin) and isometric tension/contractile force; type: cell-based; settings: 3-D culture, VEGF/HGF-stimulated, blebbistatin or nocodazole
Experimental: This process can be recapitulated in vitro by embedding serum-supplemented human endothelial cells within a 3-D fibrin gel in the presence of the pro-angiogenic factors, VEGF and HGF. Human umbilical vein endothelial cells were isolated from umbilical cords by perfusion of the umbilical vein with type 3 collagenase (Worthington, Lakewood, N.J.) and cultured in Medium-199 (Invitrogen, Carlsbad, Calif.) with 20% human serum and 50 μg/ml endothelial cell growth supplement (ECGS; BD Biosciences, Franklin Lakes, N.J.). For 3-D culture, endothelial cells were suspended in a solution of thrombin and aprotinin (Sigma, St. Louis, Mo.) and mixed 1:1 with a solution of 6 mg/ml fibrinogen (Calbiochem, Gibbstown, N.J.). Vasculogenesis was triggered by treatment with 100 ng/ml VEGF, 50 ng/ml HGF (Genentech, San Francisco, Calif.).
VEGF/HGF-stimulated endothelial cells were treated with either (a) blebbistatin to inhibit myosin ATPase function, or (b) nocodazole to prevent microtubule assembly under 3-D culture conditions (Salpingidou et al., 2007. J. Cell Biol., 178: 897-904; Zhou et al., supra).

human endothelial cells = assay: F-actin cytoskeletal organization, activated β1 integrin and vinculin distribution (phalloidin, confocal); type: cell-based; settings: 3-D fibrin gel, 2 days, 50 μM blebbistatin
Experimental: To further study the effects of Fn matrix inhibition, additional cytological processes associated with angiogenesis were examined. Endothelial cells were cultured within 3-D or 2-D fibrin gels in the presence of the FUD or Del 29 peptides for 2 days. F-actin cytoskeletal organization was monitored following staining with Alexa 488-conjugated phalloidin. Cells also were stained with an antibody against activated β1 integrin or transfected with a GFP-tagged vinculin expression vector (pRK-vinculin-EGFP) to study distribution. Following counterstaining with Alexa 594-labeled phalloidin, fluorescence was monitored by confocal laser microscopy.
In the absence of Fn fibrillogenesis, an impaired ability of embedded endothelial cells to generate myosin-dependent forces and increase cytoplasmic stiffness was predicted to affect both Fn unfolding, as well as the ability of the cells to properly register the mechanical properties of the surrounding substratum (Wu et al. 1995. Cell, 83(5): 715-724; Zhong et al. 1998. J. Cell Biol., 141(2): 539-551; Baneyx et al. 2002. Proc. Natl. Acad. Sci. USA, 99(8): 5139-5143; Discher et al. 2005. Science, 310(5751): 1139-1143; Engler, supra; and Yoneda, supra). As such, the rheologic and functional characteristics of endothelial cells were assessed in the presence of the specific myosin ATPase inhibitor, blebbistatin. […]

[2] = system: β-actin, α-actinin, and MLC2; assay: Western blot with semi-quantitative densitometry of cytoskeletal proteins; type: cell-based, human; settings: 3-D fibrin gel
Text: Tractional forces exerted at cell-matrix adhesion sites require the activation of an actinomyosin motor complex whose assembly is tightly linked to actin cytoskeleton organization, non-muscle myosin II isoform expression, and the rigidity of the surrounding substratum (Meshel et al. 2005. Nat. Cell Biol., 7(2): 157-164; Engler, supra; and Even-Ram, supra; Yoneda et al. 2007. Mol. Cell. Biol., 19(1): 66-75). β-actin, α-actinin, myosin light chain-2 (MLC2), and non-muscle myosin IIA and IIB isoform (NMMIIA and NMMIIB, respectively) protein levels were monitored in 3-D embedded endothelial cells to determine the effect of Fn matrix inhibition on the expression of gene products critical to the generation of tractional forces. Endothelial cells were cultured in 3-D fibrin gels for 2 days with either the FUD peptide or the control Del29 peptide. Levels of β-actin, α-actinin, NMMIIA, NMMIIB, and MLC2 were measured by Western blot, with ERK1/2 serving as the loading control. As assessed by semi-quantitative densitometry, the levels of β-actin, actinin and MLC2 were 58±7% (n=5; mean±1 SD), 62% (n=2), and 60±12% (n=3; mean±1 SD) of control, respectively.

[3] = system: chorioallantoic membrane (CAM) of live chicks; assay: Chick chorioallantoic membrane (CAM) angiogenesis into 3-D matrices; type: in vivo; settings: 3 days, VEGF and HGF, versus Del29 control
Experimental: The functional role for fibrillogenesis in tissue sites undergoing active angiogenesis in vivo was assessed. To this end, 3-D composite gels of fibrin and type I collagen were placed atop the chorioallantoic membrane (CAM) of live chicks, and angiogenesis was initiated in the presence of FUD or the Del29 peptide control. In particular, 3-D matrices of type I collagen or a type I collagen/fibrin composite matrix were cast in transwell tissue culture inserts (24 well size) perforated with a 25 gauge needle. A 30 μl Matrigel (BD Biosciences) reservoir was placed atop the matrix containing 200 ng VEGF, 100 ng HGF, and either Del29 or FUD. The entire apparatus was placed atop the dropped CAM of 10-11 day old fertile chicken eggs. Following incubation in a humidified incubator at 37° for 3 days, the matrices were harvested. Vascular ingrowth was monitored by light microscopy following H&E staining. In some experiments, FITC-Fn (McKeown-Longo and Mosher. 1985. J. Cell. Biol., 100(2): 364-74) was supplemented in the matrices during the culture period, and Fn fibrillogenesis within the gels was monitored by confocal laser microscopy.

Compound | contractile force exerted on the 3-D ECM [1] | cytoskeletal architecture reorganization (human endothelial cells) | level of actinin ([2]; 2 days, control Del29 peptide, n=2) | level of MLC2 ([2]; 2 days, control Del29 peptide, n=3, mean±1 SD) | level of β-actin ([2]; 2 days, control Del29 peptide, n=5, mean±1 SD) | levels of β-actin, α-actinin, and MLC2 ([2]; growth factor-stimulated) | Fn matrix assembly in ECM construct [3] | neovessel formation (vascular ingrowth) [3]
Cc1ccc2c(c1)C(=O)C1(O)CCN(c3ccccc3)C1=N2 (centres unmarked) [blebbistatin] | impairing | did not reorganize |  |  |  |  |  | 
FUD: 49-residue functional upstream domain of Streptococcus pyogenes F1 adhesion protein, SEQ ID NO: 10; fibronectin fibril assembly inhibitor (KDQSPLAGESGETEYITEVYGNQQNPVDIDKKLPNETGFSGNMVETEDT; Streptococcus pyogenes; Functional Upstream Domain (FUD) of F1 adhesion protein) |  |  | 62 % of control | 60±12 % of control | 58±7 % of control | markedly reduced | almost completely inhibited | ablated
